Assay [1] concerns the target Poly [ADP-ribose] polymerase 1 (Homo sapiens, UniProt P09874). Briefly: Inhibition of human recombinant Poly (ADP-ribose) polymerase 1.
Assay [2] in a line: Effective concentration was determined from in vitro cellular peroxide toxicity assay. Type of assay: functional.

Sequence of Poly [ADP-ribose] polymerase 1 (P09874 whole entry): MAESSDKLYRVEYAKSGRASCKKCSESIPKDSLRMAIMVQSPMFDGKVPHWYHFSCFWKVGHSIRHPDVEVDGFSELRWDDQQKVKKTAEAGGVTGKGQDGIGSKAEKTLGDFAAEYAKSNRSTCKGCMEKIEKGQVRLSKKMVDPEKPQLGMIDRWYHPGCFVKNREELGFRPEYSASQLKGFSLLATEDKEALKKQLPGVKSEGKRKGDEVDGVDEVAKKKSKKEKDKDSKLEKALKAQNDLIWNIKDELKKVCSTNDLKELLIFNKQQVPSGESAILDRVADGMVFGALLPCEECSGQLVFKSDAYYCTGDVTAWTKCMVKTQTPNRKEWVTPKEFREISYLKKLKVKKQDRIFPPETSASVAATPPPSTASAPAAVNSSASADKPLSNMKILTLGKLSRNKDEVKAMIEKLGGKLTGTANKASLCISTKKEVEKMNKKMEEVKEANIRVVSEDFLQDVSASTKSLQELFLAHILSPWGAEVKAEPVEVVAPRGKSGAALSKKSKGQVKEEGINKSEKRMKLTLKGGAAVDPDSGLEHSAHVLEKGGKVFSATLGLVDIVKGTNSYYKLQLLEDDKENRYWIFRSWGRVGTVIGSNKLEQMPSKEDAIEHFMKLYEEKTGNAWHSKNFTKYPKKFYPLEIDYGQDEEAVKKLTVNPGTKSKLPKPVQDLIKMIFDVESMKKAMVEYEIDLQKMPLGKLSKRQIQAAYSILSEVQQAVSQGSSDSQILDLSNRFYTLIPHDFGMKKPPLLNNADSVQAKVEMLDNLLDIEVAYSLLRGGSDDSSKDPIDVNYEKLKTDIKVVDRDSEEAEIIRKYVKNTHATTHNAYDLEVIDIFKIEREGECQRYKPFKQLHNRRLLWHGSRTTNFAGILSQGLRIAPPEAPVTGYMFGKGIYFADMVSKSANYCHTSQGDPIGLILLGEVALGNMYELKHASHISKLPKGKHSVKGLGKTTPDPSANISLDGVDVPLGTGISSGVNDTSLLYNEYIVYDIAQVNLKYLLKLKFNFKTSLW

`Oc1nc2c(c3ccccc13)CCCC2`: the IC50 in assay [1] was 167 nM.

For `O=C(CCN1CCC(N2CCCC2)CC1)N1CCc2c(nc(O)c3ccccc23)C1`, the half-maximal inhibitory concentration (IC50) in assay [1] stood at 243 nM.

With `O=C(CN1CCCCC1)N1CCc2nc(O)c3ccccc3c2C1`, the EC50 in assay [2] stood at 60 nM.

In assay [2], `O=C(CCN1CCCCC1)N1CCc2nc(O)c3ccccc3c2C1` registered an EC50 of 58 nM.

For `Oc1nc2c(c3ccc(F)cc13)CNCC2`, in assay [1], the IC50 amounted to 20 nM. For the same compound, the EC50 in assay [2] was 40 nM.

The compound `O=C(CN1CCCCC1)N1CCc2c(nc(O)c3ccccc23)C1` returned an EC50 in assay [2] of 260 nM.

Regarding `O=C(CCN1CCC(N2CCCC2)CC1)N1CCc2nc(O)c3cc(F)ccc3c2C1`, the IC50 in assay [1] came to 32 nM. This compound had an EC50 in assay [2] of 610 nM.

`O=C(CCN1CCCCC1)N1CCc2[nH]c(=O)c3cc(F)ccc3c2C1`: in assay [1], the IC50 is 25 nM. In addition, in assay [2], the response was half-maximal at 30 nM (EC50).

On to `Oc1nc2c(c3ccccc13)CCNC2`, for which the IC50 in assay [1] was 30 nM. The same compound came in with a half-maximal effective concentration (EC50) in assay [2] of 45 nM.

In the case of `N[C@@H](CCC(=O)N1CCc2nc(O)c3ccccc3c2C1)C(=O)O`, the IC50 in assay [1] is 89 nM. Further, the EC50 in assay [2] came to 30000 nM.

In the case of `O=c1[nH]c2c(c3ccccc13)CN(S(=O)(=O)CCN1CCC(N3CCCC3)CC1)CC2`, in assay [1], the IC50 worked out at 357 nM.

For the compound `Oc1nc2c(c3ccccc13)CNCC2`, in assay [2], the EC50 stood at 40 nM.

Consider `O=C(CN1CCC(N2CCCC2)CC1)N1CCc2nc(O)c3ccccc3c2C1`, for which the IC50 in assay [1] was 185 nM. In assay [2], this compound displayed an EC50 of 850 nM.

In the case of `O=C([C@@H]1CCCN1)N1CCc2c(nc(O)c3ccccc23)C1`, in assay [1], the IC50 is 31 nM. In assay [2], this compound came in with an EC50 of 100 nM.

As to `O=c1[nH]c2c(c3ccccc13)CCN(S(=O)(=O)CCN1CCCCC1)C2`, in assay [1], the IC50 was found to be 376 nM. The same compound displayed an EC50 in assay [2] of 2790 nM.

For the compound `O=C(CN1CCN(C2CCCC2)CC1)N1CCc2c(nc(O)c3ccccc23)C1`, in assay [1], the IC50 turned out to be 116 nM. This compound displayed an EC50 in assay [2] of 690 nM.

In the case of `O=C(CCN1CCCCC1)N1CCc2c(nc(O)c3ccccc23)C1`, the IC50 in assay [1] came out at 240 nM.

For the compound `O=S(=O)(CCN1CCC(N2CCCC2)CC1)N1CCc2c(nc(O)c3ccccc23)C1`, the IC50 in assay [1] came to 349 nM. The compound also registered an EC50 in assay [2] of 1780 nM.

The values are drawn from ChEMBL document CHEMBL1136129, “Design and synthesis of poly(ADP-ribose)polymerase-1 (PARP-1) inhibitors. Part 3: In vitro evaluation of 1,3,4,5-tetrahydro-benzo[c][1,6]- and [c][1,7]-naphthyridin-6-ones” (Bioorg Med Chem Lett, 2003).
